Values after ≈ are worked out from the molar mass of the structure shown. Where two headings read alike, the source gives them in different places.
Assays:
Propionibacterium acnes = test: Minimum inhibitory concentration (MIC) against Propionibacterium acnes (Test Example 1); assay type: cell-based, Propionibacterium acnes (ATCC 6919); details: Cutibacterium acnes
Protocol: The minimum inhibitory concentration (MIC) of 1-pentadecanol against Propionibacterium acnes was determined as follows.
In 1 l of purified water was dissolved 59.0 g of a GAM (Gifu anaerobic medium) bouillon medium (Nissui Pharmaceutical Co., Ltd.) and 1-pentadecanol was added to the bouillon solution to give a concentration of 100 μg/ml. The mixture was stepwise diluted two times with the same medium, followed by sterilization.
A 10 ml aliquot of the mixture was put in a test tube and inoculated with 0.1 ml of the culture of Propionibacterium acnes (ATCC 6919) which had been precultured so as to give a cell density of 1×10^8 cells/ml. The system was static-cultured under anaerobic conditions for 48 hours, and the turbidity was measured at a wavelength of 660 nm to obtain MIC (μg/ml).
For comparison, MIC of 1-dodecanol and 1-hexadecanol, which have relatively strong antibacterial activity on several bacteria and are generally used as a base of cosmetics, against Propionibacterium acnes was obtained in the same manner.

Staphylococcus aureaus = details: among 1-alkanols having 10 to 16 carbon atoms; Kato et al. (1980); cited from earlier work
[1] = GAM bouillon medium, anaerobic static culture 48 hours, turbidity at 660 nm, read-out: MIC

| MIC (Propionibacterium acnes; [1]) | SMILES | effectiveness on Staphylococcus aureaus (Staphylococcus aureaus) | MIC (Propionibacterium acnes; 48 h) |
| --- | --- | --- | --- |
| > 200 µg/mL | CCCCCCCCCCCCCCCCO [1-hexadecanol] |  |  |
| 25 µg/mL (≈ 134 µM) | CCCCCCCCCCCCO [1-dodecanol] | the most effective |  |
|  | CCCCCCCCCCCCCCCO [1-pentadecanol] |  | 3.13 µg/mL (≈ 13.7 µM) |

Source: patent US5380763A, “Topical composition for treating acne vulgaris” (Takasago International Corporation, priority 1992, dated 1995)
